target: Escherichia coli DNA gyrase A/B tetramer (Escherichia coli (strain K12), UniProt P0AES4+P0AES6); assay: DNA gyrase supercoiling activity fluorescence polarisation assay; assay type: biochemical; settings: 5 nM enzyme, relaxed plasmid, 0.3 mM ATP, ambient temperature; read-out: E. coli DNA gyrase supercoiling IC50
In short: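 Supercoiling reactions quenched with 40 nM 5′-BODIPY-FL triplex-forming oligonucleotide probe in pH 3.5 NaCl/sodium acetate buffer; after 60 min, fluorescence anisotropy read (ex 485/em 535 nm). IC50 by nonlinear regression, normalised to 0.8% DMSO (100% activity) and 5 μM ciprofloxacin (0% activity).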

| SMILES | IC50 [µM] |
| --- | --- |
| C[C@@H]1CN2c3c(cc4c(-c5scnc5C(=O)N5CCOCC5)noc4c3F)CC3(C(=O)NC(=O)NC3=O)[C@H]2[C@H](C)O1 (relative stereo) [Example 85, (2R,4S,4aS)-rel-11-fluoro-2,4-dimethyl-8-[4-(morpholin-4-ylcarbonyl)-1,3-thiazol-5-yl]-1,2,4,4a-tetrahydro-2′H,6H-spiro[1,4-oxazino[4,3-a][1,2]oxazolo[4,5-g]quinoline-5,5′-pyrimidine]-2′,4′,6′(1′H,3′H)-trione] | 17 |
| C[C@@H]1CN2c3c(cc4c(-c5nccn5C)noc4c3F)CC3(C(=O)NC(=O)NC3=O)[C@@H]2[C@H](C)O1 (relative stereo) [Example 68, (2R,4S,4aR)-rel-11-fluoro-2,4-dimethyl-8-(1-methyl-1H-imidazol-2-yl)-1,2,4,4a-tetrahydro-2′H,6H-spiro[1,4-oxazino[4,3-a][1,2]oxazolo[4,5-g]quinoline-5,5′-pyrimidine]-2′,4′,6′(1′H,3′H)-trione] | 0.7 |
| Cc1ccc(-c2noc3c(Cl)c4c(cc23)CC2(C(=O)NC(=O)NC2=O)[C@H]2[C@H](C)O[C@H](C)CN42)cn1 (relative stereo) [Example 40, (2R,4S,4 aS)-rel-11-chloro-2,4-dimethyl-8-(6-methylpyridin-3-yl)-1,2,4,4a-tetrahydro-2′H,6H-spiro[1,4-oxazino[4,3-a][1,2]oxazolo[4,5-g]quinoline-5,5′-pyrimidine]-2′,4′,6′(1′H,3′H)-trione] | 1.6 |
| CC(=O)N1CCN(c2noc3c(F)c4c(cc23)CC2(C(=O)NC(=O)NC2=O)[C@H]2[C@H](C)O[C@H](C)CN42)CC1 (relative stereo) [Example 8, (2R,4S,4aS)-rel-8-(4-acetylpiperazin-1-yl)-11-fluoro-2,4-dimethyl-1,2,4,4a-tetrahydro-2′H,6H-spiro[isoxazolo[4,5-g][1,4]oxazino[4,3-a]quinoline-5,5′-pyrimidine]-2′,4′,6′(1′H,3′H)-trione] | 8.3 |
| C[C@@H]1CN2c3c(nc4c(C(=O)NCC(C)(C)C)noc4c3Cl)CC3(C(=O)NC(=O)NC3=O)[C@H]2[C@H](C)O1 (relative stereo) [Example 129, (2R,4S,4aS)-rel-11-Chloro-2,4-dimethyl-N-neopentyl-2′,4′,6′-trioxo-2,2′,3′,4,4a,4′,6,6′-octahydro-1H,1′H-spiro[isoxazolo[4,5-g][1,4]oxazino[4,3-a][1,5]naphthyridine-5,5′-pyrimidine]-8-carboxamide] | 31 |
| Cc1noc(C)c1-c1noc2c(F)c3c(cc12)CC1(C(=O)NC(=O)NC1=O)[C@H]1[C@H](C)O[C@H](C)CN31 (relative stereo) [Example 67, (2R,4S,4aS)-rel-8-(3,5-dimethyl-1,2-oxazol-4-yl)-11-fluoro-2,4-dimethyl-1,2,4,4a-tetrahydro-2′H,6H-spiro[1,4-oxazino[4,3-a][1,2]oxazolo[4,5-g]quinoline-5,5′-pyrimidine]-2′,4′,6′(1′H,3′H)-trione] | 3.2 |
| COc1cncc(-c2noc3c(F)c4c(cc23)CC2(C(=O)NC(=O)NC2=O)[C@H]2[C@H](C)O[C@H](C)CN42)n1 [Example 167, (2R,4S,4aS)-11-fluoro-8-(6-methoxypyrazin-2-yl)-2,4-dimethyl-2,4,4a,6-tetrahydro-1H,1′H-spiro[isoxazolo[4,5-g][1,4]oxazino[4,3-a]quinoline-5,5′-pyrimidine]-2′,4′,6′(3′H)-trione] | 1.1 |
| C[C@@H]1CN2c3c(cc4c(C(N)=S)noc4c3F)CC3(C(=O)NC(=O)NC3=O)[C@H]2[C@H](C)O1 (relative stereo) [Intermediate 575, (2R,4S,4aS)-rel-11-fluoro-2,4-dimethyl-2′,4′,6′-trioxo-1,1′,2,3′,4,4′,4a,6′-octahydro-2′H,6H-spiro[1,4-oxazino[4,3-a][1,2]oxazolo[4,5-g]quinoline-5,5′-pyrimidine]-8-carbothioamide] | 1 |
| C[C@@H]1CN2c3c(cc4c(-n5cc(Cl)cn5)noc4c3F)CC3(C(=O)NC(=O)NC3=O)[C@H]2[C@H](C)O1 (relative stereo) [Example 61, (2R,4S,4aS)-rel-8-(4-chloro-1H-pyrazol-1-yl)-11-fluoro-2,4-dimethyl-1,2,4,4a-tetrahydro-2′H,6H-spiro[1,4-oxazino[4,3-a][1,2]oxazolo[4,5-g]quinoline-5,5′-pyrimidine]-2′,4′,6′(1′H,3′H)-trione] | 9.3 |
| COCCNC(=O)c1noc2c(F)c3c(cc12)CC1(C(=O)NC(=O)NC1=O)[C@H]1[C@H](C)O[C@H](C)CN31 (relative stereo) [Example 143, (2R,4S,4aS)-rel-11-fluoro-N-(2-methoxyethyl)-2,4-dimethyl-2′,4′,6′-trioxo-2,2′,3′,4,4a,4′,6,6′-octahydro-1H,1′H-spiro[isoxazolo[4,5-g][1,4]oxazino[4,3-a]quinoline-5,5′-pyrimidine]-8-carboxamide] | 1 |
| Cc1ncc(-c2noc3c(Cl)c4c(nc23)CC2(C(=O)NC(=O)NC2=O)[C@H]2[C@H](C)O[C@H](C)CN42)s1 (relative stereo) [Example 117, (2R,4S,4aS)-rel-11-Chloro-2,4-dimethyl-8-(2-methylthiazol-5-yl)-2,4,4a,6-tetrahydro-1H,1′H-spiro[isoxazolo[4,5-g][1,4]oxazino[4,3-a][1,5]naphthyridine-5,5′-pyrimidine]-2′,4′,6′(3′H)-trione] | 2 |
| C[C@@H]1CN2c3c(cc4c(-c5cnc(N6CCOCC6)cn5)noc4c3F)CC3(C(=O)NC(=O)NC3=O)[C@@H]2[C@@H](C)O1 [Example 166(a), (2R,4R,4aR)-11-fluoro-2,4-dimethyl-8-(5-morpholinopyrazin-2-yl)-2,4,4a,6-tetrahydro-1H,1′H-spiro[isoxazolo[4,5-g][1,4]oxazino[4,3-a]quinoline-5,5′-pyrimidine]-2′,4′,6′(3′H)-trione] | 83 |
| C[C@@H]1CN2c3c(cc4c(C(=O)N5CCC(F)(F)CC5)noc4c3F)CC3(C(=O)NC(=O)NC3=O)[C@H]2[C@H](C)O1 (relative stereo) [Example 157, (2R,4S,4aS)-rel-8-(4,4-difluoropiperidine-1-carbonyl)-11-fluoro-2,4-dimethyl-2,4,4a,6-tetrahydro-1H,1′H-spiro[isoxazolo[4,5-g][1,4]oxazino[4,3-a]quinoline-5,5′-pyrimidine]-2′,4′,6′(3′H)-trione] | 6.4 |
| C[C@@H]1CN2c3c(cc4c(-c5ccccc5F)noc4c3F)CC3(C(=O)NC(=O)NC3=O)[C@H]2[C@H](C)O1 (relative stereo) [Example 99, (2R,4S,4aS)-rel-11-fluoro-8-(2-fluorophenyl)-2,4-dimethyl-2,4,4a,6-tetrahydro-1H,1′H-spiro[isoxazolo[4,5-g][1,4]oxazino[4,3-a]quinoline-5,5′-pyrimidine]-2′,4′,6′(3′H)-trione] | 0.4 |
| COCc1noc2c(Cl)c3c(cc12)CC1(C(=O)NC(=O)NC1=O)[C@H]1[C@H](C)O[C@H](C)CN31 (relative stereo) [Example 49, (2R,4S,4aS)-rel-11-chloro-8-(methoxymethyl)-2,4-dimethyl-1,2,4,4a-tetrahydro-2′H,6H-spiro[1,4-oxazino[4,3-a][1,2]oxazolo[4,5-g]quinoline-5,5′-pyrimidine]-2′,4′,6′(1′H,3′H)-trione] | 1.7 |
| Cc1ccc(-c2noc3c(F)c4c(cc23)CC2(C(=O)NC(=O)NC2=O)[C@H]2[C@H](C)O[C@H](C)CN42)cn1 (relative stereo) [Example 91, (2R,4S,4aS)-rel-11-fluoro-2,4-dimethyl-8-(6-methylpyridin-3-yl)-2,4,4a,6-tetrahydro-1H,1′H-spiro[isoxazolo[4,5-g][1,4]oxazino[4,3-a]quinoline-5,5′-pyrimidine]-2′,4′,6′(3′H)-trione] | 1.9 |
| C[C@@H]1CN2c3c(cc4c(-c5nccs5)noc4c3Cl)CC3(C(=O)NC(=O)NC3=O)[C@H]2[C@H](C)O1 (relative stereo) [Example 48, (2R,4S,4aS)-rel-11-chloro-2,4-dimethyl-8-(1,3-thiazol-2-yl)-1,2,4,4a-tetrahydro-2′H,6H-spiro[1,4-oxazino[4,3-a][1,2]oxazolo[4,5-g]quinoline-5,5′-pyrimidine]-2′,4′,6′(1′H,3′H)-trione] | 1 |
| C[C@@H]1CN2c3c(cc4c(N5CCOCC5)noc4c3F)CC3(C(=O)NC(=O)NC3=O)[C@H]2[C@H](C)O1 (relative stereo) [Example 22, (2R,4S,4aS)-rel-11-fluoro-2,4-dimethyl-8-(morpholin-4-yl)-1,2,4,4a-tetrahydro-2′H,6H-spiro[isoxazolo[4,5-g][1,4]oxazino[4,3-a]quinoline-5,5′-pyrimidine]-2′,4′,6′(1′H,3′H)-trione] | 2.6 |
| C[C@@H]1CN2c3c(cc4c(C(=O)NCc5cccs5)noc4c3F)CC3(C(=O)NC(=O)NC3=O)[C@H]2[C@H](C)O1 (relative stereo) [Example 154, (2R,4S,4aS)-rel-11-fluoro-2,4-dimethyl-2′,4′,6′-trioxo-N-(thiophen-2-ylmethyl)-2,2′,3′,4,4a,4′,6,6′-octahydro-1H,1′H-spiro[isoxazolo[4,5-g][1,4]oxazino[4,3-a]quinoline-5,5′-pyrimidine]-8-carboxamide] | 1.5 |
| C[C@@H]1CN2c3c(nc4c(-c5ccc(C#N)c(F)c5)noc4c3Cl)CC3(C(=O)NC(=O)NC3=O)[C@H]2[C@H](C)O1 (relative stereo) [Example 121, 4-((2R,4S,4aS)-rel-11-chloro-2,4-dimethyl-2′,4′,6′-trioxo-2,2′,3′,4,4a,4′,6,6′-octahydro-1H,1′H-spiro[isoxazolo[4,5-g][1,4]oxazino[4,3-a][1,5]naphthyridine-5,5′-pyrimidine]-8-yl)-2-fluorobenzonitrile] | 0.6 |
| CC(=O)Nc1ccn(-c2noc3c(F)c4c(cc23)CC2(C(=O)NC(=O)NC2=O)[C@H]2[C@H](C)O[C@H](C)CN42)n1 (relative stereo) [Example 28, N-{1-[(2R,4S,4aS)-rel-11-fluoro-2,4-dimethyl-2′,4′,6′-trioxo-1,1′,2,3′,4,4′,4a,6′-octahydro-2′H,6H-spiro[1,4-oxazino[4,3-a][1,2]oxazolo[4,5-g]quinoline-5,5′-pyrimidin]-8-yl]-1H-pyrazol-3-yl}acetamide] | 3.1 |
